Assay: Metabolic stability in human liver microsomes assessed as parent compound remaining at 1 uM preincubated for 5 mins followed by NADPH regeneration system addition and measured after 30 mins by LC-MS analysis
Type: ADME, Microsome
Settings: time 35 min, read-out: Stabilty

remaining at 0.5 h, 1 µM: 27.5%
SMILES: Clc1cccc(-c2n[nH]cc2N2CCCNCC2)c1

Reference: ChEMBL document CHEMBL4825758, “Discovery of G Protein-Biased Antagonists against 5-HT7R” (J Med Chem, 2021)
